# Measurements as given in patent US20210060320A1, “TRANSDERMAL DRUG DELIVERY SYSTEM AND METHOD FOR USING SAME” (NICHIBAN CO., LTD., priority 2017, published 2021).
# Settings: pH 8
# From the text: Note that in the present invention, as an index of the “water solubility” in a “water-soluble drug” or a “water-soluble steroid”, a distribution coefficient (octanol/water distribution coefficient) can be employed. The distribution coefficient can be expressed by log D by taking into consideration of the influence of pH, and the water solubility is indicated by a minus value, while the liposolubility lipophilicity is indicated by a plus value.
# The distribution coefficient can be obtained in accordance with the method described in JIS Z7260-107 or […].
substance,measurement,value
dexamethasone metasulfobenzoate sodium,distribution coefficient (log D),−2
prednisolone sodium phosphate,distribution coefficient (log D),0
